This passage reports Bliss excess results from the supplement of paper PMC11061612.

What all share (experiment): Bliss excess, mean over the matrix (fraction); higher = more synergy
Experiment [1] concerns B-CPAP (Thyroid Gland Carcinoma). The method in brief:
(§1)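 Cell lines in DMEM/F12 or RPMI with 10% FBS were plated in 1536-well plates, held 24 hours at 37°C, 5% CO2, then given two-drug dose matrices for 72 hours (DMSO typically 0.2%). Viability was read by CellTiter-Glo 2.0 luminescence and scaled as inhibition from 0 (vehicle wells) to 1 (blank wells). Combination Emax is the second-highest inhibition in the matrix; Bliss excess is observed combination effect minus expected EA + EB − EA·EB, EA and EB being single-agent effects.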

In experiment [2] the test system is CaR-1 (Colorectal Carcinoma). The method in brief:
as §1

The test system of experiment [3] is Calu-3 (Lung Adenocarcinoma). The method in brief:
as §1

For experiment [4], the system named is DoTc2-4510 (Cervical Carcinoma). The method in brief: as §1
In experiment [5] the test system is ES4 (Ewing's Sarcoma). The method in brief: as §1
In experiment [6] the test system is HCC1806 (Breast Carcinoma). The method in brief:
as §1

Experiment [7] deals with HT-1376 (Bladder Carcinoma). The method in brief:
as §1

Experiment [8] has as its system HuP-T4 (Pancreatic Carcinoma). The method in brief: as §1
Experiment [9] has as its system KP-1N (Pancreatic Carcinoma). The method in brief:
as §1

In experiment [10] the test system is LNCaP-Clone-FGC (Prostate Carcinoma). The method in brief:
as §1

Experiment [11] relates to LS-180 (Colorectal Carcinoma). The method in brief:
as §1

The subject of experiment [12] is MDA-MB-361 (Breast Carcinoma). The method in brief:
as §1

Experiment [13] relates to MFE-296 (Endometrial Carcinoma). The method in brief: as §1
The test system of experiment [14] is NB10 (Neuroblastoma). The method in brief: as §1
For experiment [15], the system named is NCI-H2085 (Non-Small Cell Lung Carcinoma). The method in brief:
as §1

Experiment [16] has as its system NOS-1 (Osteosarcoma). The method in brief:
as §1

Experiment [17] deals with Ramos-2G6-4C10 (Burkitt's Lymphoma). The method in brief:
as §1

Experiment [18] relates to SK-ES-1 (Ewing's Sarcoma). The method in brief: as §1
Experiment [19] concerns TCCSUP (Bladder Carcinoma). The method in brief: as §1
For experiment [20], the system named is UM-UC-3 (Bladder Carcinoma). The method in brief: as §1

Consider `Cc1cc2ncnn2cc1Nc1ncc2c(n1)n(C1CCOCC1)c(=O)n2C` [AZD7648] + CN(C)CCCOc1ccc(-c2ccc3ncc4c(c3c2)n(C2CCOCC2)c(=O)n4C)cn1 [AZD0156] (first compound max 10 µM, 7x7, partner max 1 µM), for which the Bliss excess in experiment [1] was -0.0206; in experiment [2], 0.0399; in [3], -0.0252; in experiment [4], 0.0054; in experiment [5], -0.0163; in experiment [6], 0.0654. Moreover, the Bliss excess in [7] is 0.0037; in experiment [8], 0.0393; in experiment [9] it was -0.0058; in [10], 0.0016; in experiment [11], -0.0443; in experiment [12], -0.0656. For the same compound, the Bliss excess in experiment [13] was 0.0042; in experiment [14], -0.0024; in experiment [15], -0.0343; in [16] it was 0.0258; in experiment [17], 0.0236; in [18] it was 0.0628. The figures for the Bliss excess in [19] and in [20] were -0.011 and 0.014, respectively.

In the case of `Cc1cc2ncnn2cc1Nc1ncc2c(n1)n(C1CCOCC1)c(=O)n2C` [AZD7648] + C[C@@H]1COCCN1C2=NC(=NC(=C2)C3(CC3)[S@](=N)(=O)C)C4=C5C=CNC5=NC=C4 [AZD6738] (first compound max 10 µM, 7x7, partner max 10 µM), the Bliss excess is -0.0649 in experiment [1]; 0.0287 in experiment [2]; 0.0012 in experiment [3]; 0.0178 in experiment [4]; 0.0062 in [5]; 0.014 in [6]. Moreover, the Bliss excess in experiment [7] was 0.0176; in experiment [8], 0.0353; in experiment [9], -0.0035; in experiment [10], -0.0069; in [11], 0.0003; in experiment [12] it was -0.0263. In addition, the Bliss excess in experiment [13] is 0.0193; in experiment [14], -0.0306; in experiment [15], 0.0007; in [16], 0.0761; in [17] it was 0.0129; in experiment [18], 0.0046. For the same compound, the results for the Bliss excess in experiment [19] and in experiment [20] were 0.0311 and 0.0223, respectively.

Consider `Cc1cc2ncnn2cc1Nc1ncc2c(n1)n(C1CCOCC1)c(=O)n2C` [AZD7648] + O=C(c1cc(Cc2n[nH]c(=O)c3ccccc23)ccc1F)N1CCN(C(=O)C2CC2)CC1 [Olaparib] (first compound max 10 µM, 7x7, partner max 10 µM), for which the Bliss excess in experiment [1] was -0.0034; in experiment [2] it was -0.0399; in experiment [3] it was -0.0351; in experiment [4], -0.0428; in [5], 0.0132; in experiment [6], -0.0343. Also, the Bliss excess in experiment [7] was -0.0549; in experiment [8], -0.0432; in experiment [9] it was 0.0211; in [10] it was -0.0049; in experiment [11], -0.0896; in experiment [12], -0.0204. The Bliss excess in experiment [13] is -0.0255; in experiment [14], -0.0102; in experiment [15] it was -0.0444; in experiment [16], -0.0278; in [17], -0.0281; in experiment [18], 0.0254. Also, the values for the Bliss excess in experiment [19] and in experiment [20] were -0.0465 and -0.0297, respectively.

As to `NC1(C(=O)N[C@@H](CCO)c2ccc(Cl)cc2)CCN(c2ncnc3[nH]ccc23)CC1` [Capivasertib] + CC(=O)c1c(C)c2cnc(Nc3ccc(N4CCNCC4)cn3)nc2n(C2CCCC2)c1=O [Palbociclib] (first compound max 10 µM, 7x7, partner max 10 µM), the Bliss excess was -0.046 in [1]; 0.0034 in [2]; 0.0775 in experiment [3]; -0.0983 in experiment [4]; 0.074 in experiment [5]; 0.0075 in [6]. Also, the Bliss excess in [7] was -0.0388; in [8], -0.0118; in experiment [9], 0.0023; in experiment [10] it was 0.0242; in experiment [11] it was 0.0189; in experiment [12], -0.0161. For the same compound, the Bliss excess in experiment [13] was -0.0349; in experiment [14], 0.0232; in experiment [15], -0.0561; in [16], -0.0389; in experiment [17], -0.0512; in experiment [18], 0.0865. Besides, the Bliss excess in experiment [19] is 0.0372; in experiment [20] it was 0.0504.

`NC1(C(=O)N[C@@H](CCO)c2ccc(Cl)cc2)CCN(c2ncnc3[nH]ccc23)CC1` [Capivasertib] + CC(C)n1c(=O)n(C)c2cnc3cc(F)c(-c4ccc(OCCCN5CCCCC5)nc4)cc3c21 [AZD1390] (first compound max 10 µM, 7x7, partner max 0.3 µM): the Bliss excess in [1] was -0.0897; in experiment [2] it was -0.0401; in experiment [3] it was -0.0016; in experiment [4], -0.0976; in experiment [5] it was -0.0585; in experiment [6], -0.0732. Also, the Bliss excess is -0.0399 in experiment [7]; -0.0978 in experiment [8]; -0.0767 in experiment [9]; -0.0681 in experiment [10]; -0.0332 in [11]; -0.0555 in [12]. Further, the Bliss excess was -0.0695 in experiment [13]; -0.0544 in experiment [14]; -0.0564 in experiment [15]; -0.0117 in experiment [16]; -0.0205 in [17]; 0.0079 in experiment [18]. The Bliss excess in experiment [19] is -0.084; in experiment [20], -0.0211.

Regarding `NC1(C(=O)N[C@@H](CCO)c2ccc(Cl)cc2)CCN(c2ncnc3[nH]ccc23)CC1` [Capivasertib] + CCN(CCO)CCCOc1ccc2c(Nc3cc(CC(=O)Nc4cccc(F)c4)[nH]n3)ncnc2c1 [AZD2811] (first compound max 10 µM, 7x7, partner max 1 µM), the Bliss excess in experiment [1] is -0.0298; in [2] it was -0.0236; in [3], 0.0092; in experiment [4], -0.0749; in experiment [5], 0.0317; in experiment [6] it was 0.0012. Further, the Bliss excess in [7] was -0.0314; in experiment [8], -0.0614; in [9], -0.0423; in experiment [10], 0.006; in experiment [11] it was -0.0053; in experiment [12] it was 0.0141. Moreover, the Bliss excess in experiment [13] was -0.0593; in [14], -0.0793; in experiment [15], -0.0318; in experiment [16], 0.0431; in [17] it was 0.139; in [18], -0.0359. For the same compound, the Bliss excess in [19] is -0.0397; in [20], -0.0255.

`NC1(C(=O)N[C@@H](CCO)c2ccc(Cl)cc2)CCN(c2ncnc3[nH]ccc23)CC1` [Capivasertib] + COc1nnc2ccc(N3CCC(c4ccc(OCCN5CCN(C)C(=O)[C@H]5C)cc4)CC3)nn12 [AZD5153] (first compound max 10 µM, 7x7, partner max 1 µM): the Bliss excess in experiment [1] was 0.062; in experiment [2], 0.0378; in experiment [3], 0.0283; in [4] it was -0.0084; in experiment [5], -0.0175; in [6], -0.003. The Bliss excess is -0.0317 in [7]; -0.0315 in [8]; 0.0274 in experiment [9]; -0.0071 in experiment [10]; -0.0055 in experiment [11]; 0.0588 in [12]. Moreover, the Bliss excess worked out at 0.0901 in [13]; 0.0121 in experiment [14]; 0.044 in [15]; 0.0423 in experiment [16]; 0.0722 in experiment [17]; 0.0815 in experiment [18]. Besides, the results for the Bliss excess in experiment [19] and in experiment [20] were 0.0311 and -0.0158, respectively.
